Tested on: DNA repair protein genes
Assay: DNA chip mRNA expression in yeast, DNA repair protein genes (Table 3)
Assay type: cell-based, Saccharomyces cerevisiae S288C
Details: incubated two hours, concentrations as in the 1st table
Procedure: Yeast (Saccharomyces cerevisiae S288C (α SUC2mal mel gap2 CUP1)) were incubated at 25° C. on YPD medium (yeast extract 1%, polypepton 2%, glucose 2%). One of toxic chemical substances was added to the cells at logarithmic growth phase, and the cells were further incubated for two hours. Cells were cultured without any chemical substance in the same condition, and were used as control. Concentrations of the chemical substances were defined to inhibit the growth of the yeast but not lead to death.
After completion of the incubation, the culture was centrifuged to collect the cells. To the cells, sodium acetate buffer (50 mM sodium acetate, 10 mM EDTA, 1% SDS) was added, and the mixture was shaken at 65° C. for five minutes, followed by returning to room temperature, and obtaining the supernatant, of which the procedures were repeated two times. To the supernatant, ½ amount of a solution of phenol/chloroform was added, and the mixture was centrifuged to give a supernatant, which was added with an equal amount of chloroform, and the mixture was centrifuged to give a supernatant. To the supernatant, an equal amount of isopropanol containing 0.3 M sodium acetate was added, and the mixture was allowed to stand at room temperature for 30 minutes, after which the mixture was centrifuged to give a sediment of the whole RNAs. Seventy % ethanol was added to the sediment, and the mixture was again centrifuged to give a sediment, which was then dried and dissolved in water. mRNA was isolated from the whole RNAs as followings. In view of the fact that a poly A chain is attached to the 3′ terminus of mRNA, a polynucleotide having a poly T structure which was immobilized on the surface of latex beads was used to trap the mRNA, and then the mRNA was washed and eluted with spine column (Oligotex-dT30<Super>mRNA Purification Kit, Takara). Reverse transcription of the mRNA was conducted with a reverse transcriptase (Super Script II Reverse Transcriptase; catalogue No. 18064-014, GibcoBRL) using fluorescence-labeled nucleotides to give cDNAs that were introduced with Cy3-dUTP or Cy5-dUTP during the reverse transcription.
The labeled cDNAs were dissolved in TE buffer (10mM Tris-HCl/1 mM EDTA, pH8.0), and the solution was dropped on the DNA chip containing the whole genes of yeast (DNA Chip Research Inc. Japan) so that the cDNAs were hybridized on the DNA chip at 65° C. for over 12 hours. The fluoresces intensity of the DNA chip was read with a scanner, and the ratio relative to the fluorescence intensity resulting from the absence of chemical substance was estimated as the following, which is shown in Tables 1 to 9: […]

Cl[C@H]1[C@H](Cl)[C@@H](Cl)[C@@H](Cl)[C@H](Cl)[C@H]1Cl [(7), γ-hexachlorocyclohexane]
The level of expressed mRNA in the presence of chemical substance/The level of expressed mRNA in the absence of chemical substance (yeast gene YAL015C): 1.2
The level of expressed mRNA in the presence of chemical substance/The level of expressed mRNA in the absence of chemical substance (yeast gene YAR007C): 0.8
The level of expressed mRNA in the presence of chemical substance/The level of expressed mRNA in the absence of chemical substance (yeast gene YBL019W): 1.2
The level of expressed mRNA in the presence of chemical substance/The level of expressed mRNA in the absence of chemical substance (yeast gene YBR073W): 0.6
The level of expressed mRNA in the presence of chemical substance/The level of expressed mRNA in the absence of chemical substance (yeast gene YBR272C): 1.9
The level of expressed mRNA in the presence of chemical substance/The level of expressed mRNA in the absence of chemical substance (yeast gene YCR014C): 1.1
The level of expressed mRNA in the presence of chemical substance/The level of expressed mRNA in the absence of chemical substance (yeast gene YDL017W): 1.1
The level of expressed mRNA in the presence of chemical substance/The level of expressed mRNA in the absence of chemical substance (yeast gene YDL059C): 1.1
The level of expressed mRNA in the presence of chemical substance/The level of expressed mRNA in the absence of chemical substance (yeast gene YDL200C): 1.7
The level of expressed mRNA in the presence of chemical substance/The level of expressed mRNA in the absence of chemical substance (yeast gene YDR054C): 1.1
The level of expressed mRNA in the presence of chemical substance/The level of expressed mRNA in the absence of chemical substance (yeast gene YDR369C): 0.4
The level of expressed mRNA in the presence of chemical substance/The level of expressed mRNA in the absence of chemical substance (yeast gene YEL019C): 1.2
The level of expressed mRNA in the presence of chemical substance/The level of expressed mRNA in the absence of chemical substance (yeast gene YEL037C): 0.8
The level of expressed mRNA in the presence of chemical substance/The level of expressed mRNA in the absence of chemical substance (yeast gene YER162C): 0.5
The level of expressed mRNA in the presence of chemical substance/The level of expressed mRNA in the absence of chemical substance (yeast gene YFL014W): 5.5
The level of expressed mRNA in the presence of chemical substance/The level of expressed mRNA in the absence of chemical substance (yeast gene YGL058W): 0.0
The level of expressed mRNA in the presence of chemical substance/The level of expressed mRNA in the absence of chemical substance (yeast gene YGL091C): 1.3
The level of expressed mRNA in the presence of chemical substance/The level of expressed mRNA in the absence of chemical substance (yeast gene YGL127C): 1.0
The level of expressed mRNA in the presence of chemical substance/The level of expressed mRNA in the absence of chemical substance (yeast gene YGL163C): 1.0
The level of expressed mRNA in the presence of chemical substance/The level of expressed mRNA in the absence of chemical substance (yeast gene YGL249W): 1.2
The level of expressed mRNA in the presence of chemical substance/The level of expressed mRNA in the absence of chemical substance (yeast gene YGR180C): 0.5
The level of expressed mRNA in the presence of chemical substance/The level of expressed mRNA in the absence of chemical substance (yeast gene YGR231C): 2.1
The level of expressed mRNA in the presence of chemical substance/The level of expressed mRNA in the absence of chemical substance (yeast gene YGR258C): 1.5
The level of expressed mRNA in the presence of chemical substance/The level of expressed mRNA in the absence of chemical substance (yeast gene YHR164C): 0.8
The level of expressed mRNA in the presence of chemical substance/The level of expressed mRNA in the absence of chemical substance (yeast gene YIL036W): 1.4
The level of expressed mRNA in the presence of chemical substance/The level of expressed mRNA in the absence of chemical substance (yeast gene YIL072W): 1.7
The level of expressed mRNA in the presence of chemical substance/The level of expressed mRNA in the absence of chemical substance (yeast gene YIL143C): 0.8
The level of expressed mRNA in the presence of chemical substance/The level of expressed mRNA in the absence of chemical substance (yeast gene YIL153W): 1.6
The level of expressed mRNA in the presence of chemical substance/The level of expressed mRNA in the absence of chemical substance (yeast gene YIR002C): 1.3
The level of expressed mRNA in the presence of chemical substance/The level of expressed mRNA in the absence of chemical substance (yeast gene YJL026W): 0.5
The level of expressed mRNA in the presence of chemical substance/The level of expressed mRNA in the absence of chemical substance (yeast gene YJR046W): 0.9
The level of expressed mRNA in the presence of chemical substance/The level of expressed mRNA in the absence of chemical substance (yeast gene YJR052W): 1.2
The level of expressed mRNA in the presence of chemical substance/The level of expressed mRNA in the absence of chemical substance (yeast gene YKL145W): 1.6
The level of expressed mRNA in the presence of chemical substance/The level of expressed mRNA in the absence of chemical substance (yeast gene YLR103C): 1.3
The level of expressed mRNA in the presence of chemical substance/The level of expressed mRNA in the absence of chemical substance (yeast gene YLR233C): 0.8
The level of expressed mRNA in the presence of chemical substance/The level of expressed mRNA in the absence of chemical substance (yeast gene YLR288C): 1.3
The level of expressed mRNA in the presence of chemical substance/The level of expressed mRNA in the absence of chemical substance (yeast gene YML032C): 0.8
The level of expressed mRNA in the presence of chemical substance/The level of expressed mRNA in the absence of chemical substance (yeast gene YML058W): 0.6
The level of expressed mRNA in the presence of chemical substance/The level of expressed mRNA in the absence of chemical substance (yeast gene YMR035W): 2.3
The level of expressed mRNA in the presence of chemical substance/The level of expressed mRNA in the absence of chemical substance (yeast gene YMR072W): 1.4
The level of expressed mRNA in the presence of chemical substance/The level of expressed mRNA in the absence of chemical substance (yeast gene YMR096W): 1.9
The level of expressed mRNA in the presence of chemical substance/The level of expressed mRNA in the absence of chemical substance (yeast gene YMR284W): 0.8
The level of expressed mRNA in the presence of chemical substance/The level of expressed mRNA in the absence of chemical substance (yeast gene YNL213C): 1.4
The level of expressed mRNA in the presence of chemical substance/The level of expressed mRNA in the absence of chemical substance (yeast gene YNL250W): 1.2
The level of expressed mRNA in the presence of chemical substance/The level of expressed mRNA in the absence of chemical substance (yeast gene YNL261W): 1.0
The level of expressed mRNA in the presence of chemical substance/The level of expressed mRNA in the absence of chemical substance (yeast gene YNL312W): 0.5
The level of expressed mRNA in the presence of chemical substance/The level of expressed mRNA in the absence of chemical substance (yeast gene YOL043C): 1.0
The level of expressed mRNA in the presence of chemical substance/The level of expressed mRNA in the absence of chemical substance (yeast gene YOR005C): 1.4
The level of expressed mRNA in the presence of chemical substance/The level of expressed mRNA in the absence of chemical substance (yeast gene YOR386W): 1.8
The level of expressed mRNA in the presence of chemical substance/The level of expressed mRNA in the absence of chemical substance (yeast gene YPL022W): 0.8
The level of expressed mRNA in the presence of chemical substance/The level of expressed mRNA in the absence of chemical substance (yeast gene YPL164C): 0.9
The level of expressed mRNA in the presence of chemical substance/The level of expressed mRNA in the absence of chemical substance (yeast gene YPL194W): 1.5
The level of expressed mRNA in the presence of chemical substance/The level of expressed mRNA in the absence of chemical substance (yeast gene YPR025C): 1.4

C[S+](C)[O-] [(15), dimethylsulfoxide]
The level of expressed mRNA in the presence of chemical substance/The level of expressed mRNA in the absence of chemical substance (yeast gene YBR272C): 0.5
The level of expressed mRNA in the presence of chemical substance/The level of expressed mRNA in the absence of chemical substance (yeast gene YCR014C): 0.7
The level of expressed mRNA in the presence of chemical substance/The level of expressed mRNA in the absence of chemical substance (yeast gene YDL059C): 0.7
The level of expressed mRNA in the presence of chemical substance/The level of expressed mRNA in the absence of chemical substance (yeast gene YDR054C): 1.6
The level of expressed mRNA in the presence of chemical substance/The level of expressed mRNA in the absence of chemical substance (yeast gene YEL037C): 1.6
The level of expressed mRNA in the presence of chemical substance/The level of expressed mRNA in the absence of chemical substance (yeast gene YGL091C): 0.7
The level of expressed mRNA in the presence of chemical substance/The level of expressed mRNA in the absence of chemical substance (yeast gene YGL249W): 0.7
The level of expressed mRNA in the presence of chemical substance/The level of expressed mRNA in the absence of chemical substance (yeast gene YGR180C): 1.3
The level of expressed mRNA in the presence of chemical substance/The level of expressed mRNA in the absence of chemical substance (yeast gene YIL072W): 1.4
The level of expressed mRNA in the presence of chemical substance/The level of expressed mRNA in the absence of chemical substance (yeast gene YIL143C): 1.3
The level of expressed mRNA in the presence of chemical substance/The level of expressed mRNA in the absence of chemical substance (yeast gene YNL250W): 1.3
The level of expressed mRNA in the presence of chemical substance/The level of expressed mRNA in the absence of chemical substance (yeast gene YNL261W): 0.7
The level of expressed mRNA in the presence of chemical substance/The level of expressed mRNA in the absence of chemical substance (yeast gene YPL164C): 1.3

— patent publication US8192962B2, “Processes for detecting toxic substances” (Daikin Industries, Ltd., priority 2001, dated 2012)
